Columns and labels:
[1] = system: Plasmodium vivax liver stage (primary human hepatocyte culture)
Experimental: (§1)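 Dose-response of P. vivax liver stages in primary human hepatocytes, with 8 points (10 uM-[…], v1) or 12 points in duplicate (50 uM-280 pM, v2). Read-out is high-content imaging of schizont net growth area, hypnozoite quantity and hepatic nuclei. EC50 and CC20 (20% nuclei loss) were fitted in CDD Vault from the highest-quality independent experiment; toxic-dose bell-shaped points were masked. '>' marks the highest concentration with less than 50% activity, and ND means a non-sigmoidal curve.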

[2] = system: primary human hepatocytes; assay: CC20 hepatic nuclei (20% reduction); higher = less toxic
Experimental: as §1

[3] = system: Plasmodium vivax liver stage (primary human hepatocyte culture); assay: maximum inhibition of schizont net growth area; higher = more active
Experimental: as §1

[4] = P. vivax isolate: Pv657, hepatocyte lot: BGW, assay mode: Radical Cure, 8-day (treatment from day 5 post-infection)
[5] = P. vivax isolate: IVS16-38, hepatocyte lot: PDC, assay mode: Prophylactic, 6-day
[6] = P. vivax isolate: Pv836, hepatocyte lot: BGW, assay mode: Radical Cure, 8-day (treatment from day 5 post-infection)
[7] = P. vivax isolate: Pv590, hepatocyte lot: UBV, assay mode: Radical Cure, 8-day (treatment from day 5 post-infection)
[8] = P. vivax isolate: Pv668, hepatocyte lot: BGW, assay mode: Radical Cure, 8-day (treatment from day 5 post-infection)
[9] = P. vivax isolate: Pv458, hepatocyte lot: UBV, assay mode: Radical Cure, 8-day (treatment from day 5 post-infection)
[10] = P. vivax isolate: Pv728, hepatocyte lot: BGW, assay mode: Radical Cure, 8-day (treatment from day 5 post-infection)
[11] = P. vivax isolate: Pv395, hepatocyte lot: UBV, assay mode: Prophylactic, 6-day
[12] = P. vivax isolate: Pv756, hepatocyte lot: BGW, assay mode: Radical Cure, 8-day (treatment from day 5 post-infection)

COc1ccc(-c2cnc3ccc(NCc4ccc(S(N)(=O)=O)cc4)nn23)cn1
EC50 hypnozoite quantity [1, 4]: > 50 µM | CC20 hepatic nuclei [2, 4]: > 50 µM | maximum inhibition [3, 4]: 79.2%

COc1ccccc1CNC(=O)CCn1c(=O)[nH]c2ccccc2c1=O
EC50 hypnozoite quantity [1, 5]: > 10 µM | EC50 schizont net growth area [1, 5]: 0.68 µM | CC20 hepatic nuclei [2, 5]: > 10 µM | maximum inhibition [3, 5]: 98.3%

Cc1nc(Sc2ncnc3sc4c(c23)CCC4)sc1CC(N)=O
EC50 hypnozoite quantity [1, 6]: > 50 µM | EC50 schizont net growth area [1, 6]: 2.86 µM | CC20 hepatic nuclei [2, 6]: > 50 µM | maximum inhibition [3, 6]: 91%

Cc1sc2ncnc(Sc3nc4ccccc4[nH]3)c2c1C
EC50 hypnozoite quantity [1, 7]: > 50 µM | EC50 schizont net growth area [1, 7]: 1.62 µM | CC20 hepatic nuclei [2, 7]: 46.9 µM | maximum inhibition [3, 7]: 92.9%

N#CC(C#N)=NNc1cc(Cl)cc(Cl)c1
EC50 hypnozoite quantity [1, 8]: > 50 µM | EC50 schizont net growth area [1, 8]: 4.04 µM | CC20 hepatic nuclei [2, 8]: 5.21 µM | maximum inhibition [3, 8]: 85.1%

O=S1(=O)C=CC2ON=C(c3ccc(Cl)cc3)C21 (stereo unspecified)
EC50 hypnozoite quantity [1, 8]: > 50 µM | EC50 schizont net growth area [1, 8]: > 1.85 µM | CC20 hepatic nuclei [2, 8]: 37.6 µM | maximum inhibition [3, 8]: 103%

O=S1(=O)C=CC2ON=C(c3c(Cl)cccc3Cl)C21 (stereo unspecified)
EC50 hypnozoite quantity [1, 8]: > 50 µM | CC20 hepatic nuclei [2, 8]: 45.7 µM | maximum inhibition [3, 8]: 94.8%

O=c1c(Cl)c(Cl)cnn1-c1nc2ccccc2[nH]1
EC50 hypnozoite quantity [1, 9]: > 3.33 µM | CC20 hepatic nuclei [2, 9]: > 3.33 µM | maximum inhibition [3, 9]: 89.7%

Cn1c(Sc2ncnc3sccc23)nc2ccccc21
EC50 hypnozoite quantity [1, 6]: > 50 µM | EC50 schizont net growth area [1, 6]: > 16.7 µM | CC20 hepatic nuclei [2, 6]: 39.4 µM | maximum inhibition [3, 6]: 97%

O=C(Nc1cccnn1)N1CCC(=Cc2cccc(Oc3ccc(C(F)(F)F)cn3)c2)CC1
EC50 hypnozoite quantity [1, 10]: > 10 µM | EC50 schizont net growth area [1, 10]: 1.23 µM | CC20 hepatic nuclei [2, 10]: > 10 µM | maximum inhibition [3, 10]: 99%

O=C(NCCN1CCCC1)c1cc(NCCCCN2CCC(F)(F)CC2)nc2ccc(Cl)cc12
EC50 hypnozoite quantity [1, 4]: > 50 µM | EC50 schizont net growth area [1, 4]: 0.00316 µM | CC20 hepatic nuclei [2, 4]: > 50 µM | maximum inhibition [3, 4]: 103%

O=C(Nc1nc(-c2ccccn2)cs1)C1CC1c1ccccc1F (stereo unspecified)
EC50 hypnozoite quantity [1, 11]: > 10 µM | CC20 hepatic nuclei [2, 11]: > 10 µM | maximum inhibition [3, 11]: 94.3%

N#Cc1ccc(-c2cnc(N)c(-c3ccc(C(N)=O)cc3)n2)cc1
EC50 hypnozoite quantity [1, 4]: > 50 µM | EC50 schizont net growth area [1, 4]: 0.0012 µM | CC20 hepatic nuclei [2, 4]: > 50 µM | maximum inhibition [3, 4]: 85.1%

NS(=O)(=O)c1cccc(-c2ccc3ncc(N4CCOCC4)nc3c2)c1
EC50 hypnozoite quantity [1, 12]: > 50 µM | EC50 schizont net growth area [1, 12]: 0.57 µM | CC20 hepatic nuclei [2, 12]: > 50 µM | maximum inhibition [3, 12]: 88.2%

Nc1ncc(-c2ccc(C(F)(F)F)nc2)cc1-c1ccc(C(F)(F)F)nc1
EC50 hypnozoite quantity [1, 4]: > 50 µM | EC50 schizont net growth area [1, 4]: 0.19 µM | CC20 hepatic nuclei [2, 4]: > 50 µM | maximum inhibition [3, 4]: 87.5%

Nc1ncc(-c2cn[nH]c2)cc1-c1nc2cc(Cl)cnc2[nH]1
EC50 hypnozoite quantity [1, 4]: > 50 µM | EC50 schizont net growth area [1, 4]: > 50 µM | CC20 hepatic nuclei [2, 4]: > 50 µM | maximum inhibition [3, 4]: 63.7%

N=c1n(CCN2CCCCC2)c2ccccc2n1CC(O)c1cccc(Br)c1 (stereo unspecified)
EC50 hypnozoite quantity [1, 10]: > 50 µM | EC50 schizont net growth area [1, 10]: > 16.7 µM | CC20 hepatic nuclei [2, 10]: 41.8 µM | maximum inhibition [3, 10]: 111%

OCc1ccc(-c2cncc(Nc3cccc(Cl)c3)c2)cc1
EC50 hypnozoite quantity [1, 7]: > 50 µM | EC50 schizont net growth area [1, 7]: 2.54 µM | CC20 hepatic nuclei [2, 7]: > 16.7 µM | maximum inhibition [3, 7]: 94.1%

Oc1c(C(c2ccncc2)N2CCCC2)ccc2cccnc12 (stereo unspecified)
EC50 hypnozoite quantity [1, 8]: > 50 µM | CC20 hepatic nuclei [2, 8]: > 50 µM | maximum inhibition [3, 8]: 80.2%

c1ccn2c(Sc3ncnc4sccc34)ncc2c1
EC50 hypnozoite quantity [1, 6]: > 50 µM | EC50 schizont net growth area [1, 6]: > 5.56 µM | CC20 hepatic nuclei [2, 6]: 41.4 µM | maximum inhibition [3, 6]: 69.4%

O=C(Nc1ccc([N+](=O)[O-])cc1)Nc1cc(OCC(F)(F)F)cc(OCC(F)(F)F)c1
EC50 hypnozoite quantity [1, 9]: > 10 µM | EC50 schizont net growth area [1, 9]: 3.33 µM | CC20 hepatic nuclei [2, 9]: > 3.33 µM | maximum inhibition [3, 9]: 75.3%

N#CC(c1ccc(Br)cc1)c1ccc2c(C(F)(F)F)cc(C(F)(F)F)nc2n1 (stereo unspecified)
EC50 hypnozoite quantity [1, 9]: 0.957 µM | EC50 schizont net growth area [1, 9]: 1.24 µM | CC20 hepatic nuclei [2, 9]: 5.44 µM | maximum inhibition [3, 9]: 86%

CC(C)(ON=C(C(=O)NC1C(=O)N2C(C(=O)[O-])=C(C[n+]3ccccc3)CSC12)c1csc(N)n1)C(=O)O (stereo unspecified) [Ceftazidime pentahydrate]
EC50 hypnozoite quantity [1, 10]: > 10 µM | EC50 schizont net growth area [1, 10]: > 10 µM | maximum inhibition [3, 10]: 47.9%

Reference: the supplement of paper PMC8497498
